Converted amounts (≈) assume the structure as drawn. Where two headings read alike, the source gives them in different places.
Experiments:
[1] = system: Elizabethkingia anophelis; experiment: Broth microdilution (BMD) MIC; format: cell-based; conditions: for MIC: Elizabethkingia anophelis; for susceptibility category: all susceptibility tests, CLSI criteria for Enterococcus spp. (susceptible MIC <= 4 mg/L, zone >= 17 mm)
Source text: (§1) Eighteen E. anophelis clinical isolates from the nationwide surveillance program (Taiwan Surveillance of Antimicrobial Resistance) were well characterized in our previous study ([7]) and were selected for susceptibility testing and minimum bactericidal concentration (MBC) assays. Among them, five isolates with different clonality (underlined strains in Fig. S1) were selected for the time-kill assays and in vivo experiments.
(§2) Broth microdilution, disc diffusion, Etest, and agar dilution assays were conducted following CLSI guidelines to determine vancomycin MICs ([8]). […] Criteria for Staphylococcus spp. were not adopted due to the lack of a zone diameter breakpoint. MBCs were determined following CLSI guidelines ([8]).

E. bruuniana = experiment: Broth microdilution MIC of laboratory-induced mutants; format: cell-based
Protocol: (§3) E. anophelis and non-anophelis species with baseline vancomycin MICs of 16–32 mg/L (Table 2) were well characterized in our previous study ([7]) and were included in the induction study. The induction of mutants with elevated vancomycin MICs was modified from a previous study ([18]). Briefly, 10^9 cfu of wild-type E. anophelis (2008S01-229) was plated on brain heart infusion agar (Becton Dickinson, Franklin Lakes, NJ, USA) with twofold multiples of vancomycin (32 –256 mg/L). Isolates from viable colonies were subjected to broth microdilution. Genomic comparison between the parental strain (2008S01-229) and elevated-MIC mutants was performed to identify the mutated gene conferring increased vancomycin MIC. To determine whether similar genetic changes occurred in other Elizabethkingia species, non-anophelis isolates were subjected to the same induction protocol. The corresponding target genes were then analyzed by Sanger sequencing to assess the presence of analogous mutations. The target gene related to elevated vancomycin MICs was also validated via scarless gene editing.

E. meningoseptica = experiment: as above; format: cell-based; conditions: Elizabethkingia meningoseptica
Protocol: as §3

E. ursingii = experiment: as above; format: cell-based
Protocol: as §3

E. miricola = experiment: as above; format: cell-based
Protocol: as §3

[2] = system: Elizabethkingia anophelis; experiment: Murine neutropenic thigh infection model; format: in vivo, C57BL/6J mice
Protocol: In vivo efficacy was assessed by wax moth (Galleria mellonella), murine pneumonia, and murine thigh infection models following the protocols of our previous study ([2]). The Animal Ethics Committee of Taiwan’s National Health Research Institutes approved the murine pneumonia and thigh infection models.
For the thigh infection model, seven-week-old C57BL/6J mice were rendered neutropenic by intraperitoneal injections of cyclophosphamide (Cytoxan; Bristol-Myers Squibb, Princeton, NJ, USA) 4 days (150 mg/kg) and 1 day (100 mg/kg) before bacterial inoculation. A 30 µL aliquot containing the E. anophelis (10^7 cfu) was injected into each of the two rear thighs. Vancomycin (25 mg/kg or 100 mg/kg, subcutaneous) or teicoplanin (50 mg/kg, intraperitoneal) was administered 2 h and 14 h after inoculation. Mice were sacrificed 24 h post-inoculation, and homogenized thigh tissue was plated in serial 10-fold dilutions on brain-heart infusion agar to determine bacterial counts. Each mouse, not each thigh, was considered an individual data point.

[3] = system: Elizabethkingia anophelis; experiment: Etest MIC; format: cell-based
Source text: as §1, §2

[4] = system: Elizabethkingia anophelis; experiment: Agar dilution (AD) MIC; format: cell-based
Source text: as §1, §2

[5] = system: Elizabethkingia anophelis; experiment: Minimum bactericidal concentration (MBC) test; format: cell-based; conditions: for MBC: Elizabethkingia anophelis
Source text: as §1, §2

[6] = E. anophelis clinical isolate 2008N05-106
[7] = E. anophelis clinical isolate 2008S01-229
[8] = E. anophelis clinical isolate 2014C06-157
[9] = E. anophelis clinical isolate 2016N17-576
[10] = E. anophelis clinical isolate 2018C04-213
[11] = E. anophelis clinical isolate 2018C04-224
[12] = E. anophelis clinical isolate 2018C07-210
[13] = E. anophelis clinical isolate 2018C07-234
[14] = E. anophelis clinical isolate 2018C08-127
[15] = E. anophelis clinical isolate 2018E03-151
[16] = E. anophelis clinical isolate 2018E04-135
[17] = E. anophelis clinical isolate 2018N16-057
[18] = E. anophelis clinical isolate 2018N17-036
[19] = E. anophelis clinical isolate 2018N17-073
[20] = E. anophelis clinical isolate 2018N17-153
[21] = E. anophelis clinical isolate 2018N21-226
[22] = E. anophelis clinical isolate 2018S09-023
[23] = E. anophelis clinical isolate 2018S11-172

SMILES: CN[C@H](CC(C)C)C(=O)N[C@H]1C(=O)N[C@@H](CC(N)=O)C(=O)N[C@H]2C(=O)N[C@H]3C(=O)N[C@H](C(=O)N[C@H](C(=O)O)c4cc(O)cc(O)c4-c4cc3ccc4O)[C@H](O)c3ccc(c(Cl)c3)Oc3cc2cc(c3O[C@@H]2O[C@H](CO)[C@@H](O)[C@H](O)[C@H]2O[C@H]2C[C@](C)(N)[C@H](O)[C@H](C)O2)Oc2ccc(cc2Cl)[C@H]1O [Vancomycin]
- MICs, range over isolates ([1]; 18 E. anophelis isolates, broth microdilution, concordant with agar dilution and Etest): 16 to 32 mg/L
- MIC ([1]; read-out: MIC, BMD, E. anophelis clinical isolate 2008N05-106): 32 µg/mL (≈ 22.1 µM)
- MIC ([1]; read-out: MIC, BMD, E. anophelis clinical isolate 2008S01-229): 32 µg/mL (≈ 22.1 µM)
- MIC ([1]; read-out: MIC, BMD, E. anophelis clinical isolate 2014C06-157): 32 µg/mL (≈ 22.1 µM)
- MIC ([1]; read-out: MIC, BMD, E. anophelis clinical isolate 2016N17-576): 32 µg/mL (≈ 22.1 µM)
- MIC ([1]; read-out: MIC, BMD, E. anophelis clinical isolate 2018C04-213): 16 µg/mL (≈ 11 µM)
- MIC ([1]; read-out: MIC, BMD, E. anophelis clinical isolate 2018C04-224): 16 µg/mL (≈ 11 µM)
- MIC ([1]; read-out: MIC, BMD, E. anophelis clinical isolate 2018C07-210): 16 µg/mL (≈ 11 µM)
- MIC ([1]; read-out: MIC, BMD, E. anophelis clinical isolate 2018C07-234): 16 µg/mL (≈ 11 µM)
- MIC ([1]; read-out: MIC, BMD, E. anophelis clinical isolate 2018C08-127): 16 µg/mL (≈ 11 µM)
- MIC ([1]; read-out: MIC, BMD, E. anophelis clinical isolate 2018E03-151): 16 µg/mL (≈ 11 µM)
- MIC ([1]; read-out: MIC, BMD, E. anophelis clinical isolate 2018E04-135): 16 µg/mL (≈ 11 µM)
- MIC ([1]; read-out: MIC, BMD, E. anophelis clinical isolate 2018N16-057): 16 µg/mL (≈ 11 µM)
- MIC ([1]; read-out: MIC, BMD, E. anophelis clinical isolate 2018N17-036): 32 µg/mL (≈ 22.1 µM)
- MIC ([1]; read-out: MIC, BMD, E. anophelis clinical isolate 2018N17-073): 16 µg/mL (≈ 11 µM)
- MIC ([1]; read-out: MIC, BMD, E. anophelis clinical isolate 2018N17-153): 16 µg/mL (≈ 11 µM)
- MIC ([1]; read-out: MIC, BMD, E. anophelis clinical isolate 2018N21-226): 16 µg/mL (≈ 11 µM)
- MIC ([1]; read-out: MIC, BMD, E. anophelis clinical isolate 2018S09-023): 16 µg/mL (≈ 11 µM)
- MIC ([1]; read-out: MIC, BMD, E. anophelis clinical isolate 2018S11-172): 32 µg/mL (≈ 22.1 µM)
- MIC ([1]; read-out: MICs as summarised in the discussion, E. anophelis, isolates not specified): 32 µg/mL (≈ 22.1 µM)
- susceptibility category [1]: non-susceptible
- susceptibility category ([1]; listed as vancomycin): resistant
- MIC (E. bruuniana): 256 µg/mL
- MIC (E. bruuniana; wild-type E. bruuniana parent strain, read-out: Parent strain MIC): 16 µg/mL
- MIC (E. meningoseptica; induced E. meningoseptica mutants, pbp4 827DelA, Frameshift, 2 isolates, one value each): 64 µg/mL
- MIC (E. meningoseptica; wild-type E. meningoseptica parent strain, read-out: Parent strain MIC): 16 µg/mL
- MIC (E. ursingii): 256 µg/mL
- MIC (E. ursingii; wild-type E. ursingii parent strain, read-out: Parent strain MIC): 32 µg/mL
- MIC (E. ursingii; {}): 256 µg/mL
- MIC (E. miricola): 512 µg/mL
- MIC (E. miricola; wild-type E. miricola parent strain, read-out: Parent strain MIC): 32 µg/mL
- bacterial loads in thigh ([2]; 25 mg/kg subcutaneous 2 h and 14 h after inoculation, neutropenic mice, 24 h, all clinical strains, 4 mice per group): modestly reduced the bacterial loads
- bacterial load in thigh ([2]; 100 mg/kg subcutaneous 2 h and 14 h after inoculation, neutropenic mice, 24 h, compared with 25 mg/kg): greater reduction of bacterial load
- reduction of bacterial load ([2]; 100 mg/kg twice daily, infection by 2008S01-229-VAN-R compared to 2008S01-229): hampered
- MIC [3, 6]: 24 µg/mL (≈ 16.6 µM)
- MIC [3, 7]: 16 µg/mL (≈ 11 µM)
- MIC [3, 8]: 16 µg/mL (≈ 11 µM)
- MIC [3, 9]: 16 µg/mL (≈ 11 µM)
- MIC [3, 10]: 16 µg/mL (≈ 11 µM)
- MIC [3, 11]: 16 µg/mL (≈ 11 µM)
- MIC [3, 12]: 16 µg/mL (≈ 11 µM)
- MIC [3, 13]: 16 µg/mL (≈ 11 µM)
- MIC [3, 14]: 16 µg/mL (≈ 11 µM)
- MIC [3, 15]: 16 µg/mL (≈ 11 µM)
- MIC [3, 16]: 16 µg/mL (≈ 11 µM)
- MIC [3, 17]: 16 µg/mL (≈ 11 µM)
- MIC [3, 18]: 16 µg/mL (≈ 11 µM)
- MIC [3, 19]: 16 µg/mL (≈ 11 µM)
- MIC [3, 20]: 16 µg/mL (≈ 11 µM)
- MIC [3, 21]: 24 µg/mL (≈ 16.6 µM)
- MIC [3, 22]: 16 µg/mL (≈ 11 µM)
- MIC [3, 23]: 32 µg/mL (≈ 22.1 µM)
- MIC [4, 6]: 16 µg/mL (≈ 11 µM)
- MIC [4, 7]: 16 µg/mL (≈ 11 µM)
- MIC [4, 8]: 16 µg/mL (≈ 11 µM)
- MIC [4, 9]: 16 µg/mL (≈ 11 µM)
- MIC [4, 10]: 16 µg/mL (≈ 11 µM)
- MIC [4, 11]: 16 µg/mL (≈ 11 µM)
- MIC [4, 12]: 16 µg/mL (≈ 11 µM)
- MIC [4, 13]: 16 µg/mL (≈ 11 µM)
- MIC [4, 14]: 16 µg/mL (≈ 11 µM)
- MIC [4, 15]: 16 µg/mL (≈ 11 µM)
- MIC [4, 16]: 16 µg/mL (≈ 11 µM)
- MIC [4, 17]: 16 µg/mL (≈ 11 µM)
- MIC [4, 18]: 16 µg/mL (≈ 11 µM)
- MIC [4, 19]: 16 µg/mL (≈ 11 µM)
- MIC [4, 20]: 16 µg/mL (≈ 11 µM)
- MIC [4, 21]: 16 µg/mL (≈ 11 µM)
- MIC [4, 22]: 16 µg/mL (≈ 11 µM)
- MIC [4, 23]: 32 µg/mL (≈ 22.1 µM)
- MBCs relative to MICs ([5]; 18 E. anophelis isolates): within a twofold range of MICs
- MBC [5, 6]: 16 µg/mL (≈ 11 µM)
- MBC [5, 7]: 32 µg/mL (≈ 22.1 µM)
- MBC [5, 8]: 16 µg/mL (≈ 11 µM)
- MBC [5, 9]: 32 µg/mL (≈ 22.1 µM)
- MBC [5, 10]: 16 µg/mL (≈ 11 µM)
- MBC [5, 11]: 16 µg/mL (≈ 11 µM)
- MBC [5, 12]: 16 µg/mL (≈ 11 µM)
- MBC [5, 13]: 16 µg/mL (≈ 11 µM)
- MBC [5, 14]: 16 µg/mL (≈ 11 µM)
- MBC [5, 15]: 16 µg/mL (≈ 11 µM)
- MBC [5, 16]: 16 µg/mL (≈ 11 µM)
- MBC [5, 17]: 16 µg/mL (≈ 11 µM)
- MBC [5, 18]: 32 µg/mL (≈ 22.1 µM)
- MBC [5, 19]: 16 µg/mL (≈ 11 µM)
- MBC [5, 20]: 16 µg/mL (≈ 11 µM)
- MBC [5, 21]: 16 µg/mL (≈ 11 µM)
- MBC [5, 22]: 16 µg/mL (≈ 11 µM)
- MBC [5, 23]: 32 µg/mL (≈ 22.1 µM)

From article PMC12584665, “In vitro and in vivo efficacy of vancomycin against Elizabethkingia species and the impact of increased vancomycin MICs” (Microbiology Spectrum, 2025)
